{"source": "patent US11503825B2", "about": "“Pyrethroid formulations” (Vive Crop Protection Inc., priority 2011, dated 2022)", "origin": "cited, not measured here", "key": {"[1]": {"details": "cited from earlier work; for Stability data: in words"}, "[2]": {"details": "cited from earlier work; for Photolytic stability: in words; for Photolysis DT50: aqueous solution"}, "[3]": {"details": "hydrolysis prevents measurement; cited from earlier work"}, "[4]": {"details": "cited from earlier work"}, "[5]": {"details": "cited from earlier work", "remark": "listed apart in the source"}}, "note": "Entries after “also recorded” stand apart in the source; their conditions may differ. Like-named read-outs stand apart in the source and are kept apart here.", "data": [{"compound": "CC1(C)C(C=C(Cl)Cl)C1C(=O)OC(C#N)c1cccc(Oc2ccccc2)c1", "note": "(racemic) [Alpha-cypermethrin, A racemate comprising (S)-α-cyano-3-phenoxybenzyl (1R,3R)-3-(2,2-dichlorovinyl)-2,2-dimethylcyclopropanecarboxylate and (R)-α-cyano-3-phenoxybenzyl (1S,3S)-3-(2,2-dichlorovinyl)-2,2-dimethylcyclopropanecarboxylate]", "values": [{"measurement": "DT50 (hydrolysis)", "setting": "[1]; pH 4, 50° C.", "value": "stable over 10 d"}, {"measurement": "DT50 (hydrolysis)", "setting": "[1]; pH 7, 20° C.", "value": 101, "unit": "days"}, {"measurement": "DT50 (hydrolysis)", "setting": "[1]; pH 9, 20° C.", "value": 7.3, "unit": "days"}]}, {"compound": "Cc1c(COC(=O)[C@@H]2[C@H](/C=C(\\Cl)C(F)(F)F)C2(C)C)cccc1-c1ccccc1", "note": "(racemic) [Bifenthrin, 2-methylbiphenyl-3-ylmethyl (Z)-(1RS,3RS)-3-(2-chloro-3,3,3-trifluoroprop-1-enyl)-2,2-dimethylcyclopropanecarboxylate]", "values": [{"measurement": "Photolytic stability DT50", "setting": "[2]; in natural daylight", "value": "DT50 255 days in natural daylight^+"}, {"measurement": "Soil DT50 (lab.)", "setting": "[1]; range", "value": "53 to 192", "unit": "days"}]}, {"compound": "CC1(C)[C@H](C(=O)O[C@@H](C#N)c2cccc(Oc3ccccc3)c2)[C@@H]1/C=C(\\Cl)C(F)(F)F", "note": "(racemic) [Cyhalothrin, (RS)-α-cyano-3-phenoxybenzyl (Z)-(1RS,3RS)-3-(2-chloro-3,3,3-trifluoroprop-1-enyl)-2,2-dimethylcyclopropanecarboxylate]", "values": [{"measurement": "pKa", "setting": "[3]", "value": "> 9"}, {"measurement": "Solubility in acetone, dichloromethane, methanol, diethyl ether, ethyl acetate, hexane, toluene", "setting": "[4]", "value": "acetate, hexane, toluene: >500 g/L"}, {"measurement": "Solubility in water", "setting": "[4]; pH 5, 20° C.", "value": "water: 4.2 ug/L (pH 5, 20° C.)"}, {"measurement": "KOW logP", "setting": "[5]; 20° C.", "value": "logP = 6.9"}, {"measurement": "Photolytic stability", "setting": "[2]", "value": "Stable to light; slow hydrolysis by water in"}, {"measurement": "Stability data", "setting": "[1]", "value": "Slowly hydrolyzed by water in sunlight at pH 7-9,; also recorded: more rapidly at pH >9"}]}, {"compound": "CC1(C)C(C=C(Cl)Cl)C1C(=O)OC(C#N)c1cccc(Oc2ccccc2)c1", "note": "(racemic) [Cypermethrin, (RS)-α-cyano-3-phenoxybenzyl (1RS,3RS;1RS,3SR)-3-(2,2-dichlorovinyl)-2,2-dimethylcyclopropanecarboxylate]", "values": [{"measurement": "DT50 (hydrolysis)", "setting": "[1]; pH 9, 25° C.", "value": 1.8, "unit": "days"}]}, {"compound": "CC(C)[C@@H](C(=O)O[C@@H](C#N)c1cccc(Oc2ccccc2)c1)c1ccc(Cl)cc1", "note": "(racemic) [Fenvalerate, (RS)-α-cyano-3-phenoxybenzyl (RS)-2-(4-chlorophenyl)-3-methylbutyrate]", "values": [{"measurement": "Solubility in methanol", "setting": "[4]; 20° C.", "value": "methanol 84 (all in g/l, 20° C.)"}, {"measurement": "Solubility in n-hexane", "setting": "[4]; 20° C.", "value": 53, "unit": "g/L"}, {"measurement": "Solubility in xylene", "setting": "[4]; 20° C.", "value": "> 200", "unit": "g/L"}, {"measurement": "Solubility in water", "setting": "[4]; 25° C.", "value": "water <10 μg/l (25° C.)"}, {"measurement": "KOW logP", "setting": "[5]; 23° C.", "value": "logP = 5.01"}, {"measurement": "Photolytic stability", "setting": "[2]", "value": "Decarboxylation occurs in light^+"}, {"measurement": "Stability data", "setting": "[1]", "value": "rapidly hydrolyzed in alkaline media"}]}, {"compound": "CC1(C)C(C=C(Cl)Cl)C1C(=O)OC(C#N)c1cccc(Oc2ccccc2)c1", "note": "(racemic) [Zeta-cypermethrin, A mixture of the stereoisomers (S)-α-cyano-3-phenoxybenzyl (1RS,3RS;1RS,3SR)-3-(2,2-dichlorovinyl)-2,2-dimethylcyclopropanecarboxylate where the ratio of the (S);(1RS,3RS) isomeric pair to the (S);(1RS,3SR) isomeric pair lies in the ratio range 45-55 to 55-45]", "values": [{"measurement": "Photolysis DT50", "setting": "[2]", "value": "Photolysis DT50 (aqueous solution) 20-26 days^+"}, {"measurement": "Hydrolysis DT50", "setting": "[1]; pH 7, 25° C.", "value": 25, "unit": "days"}, {"measurement": "Hydrolysis DT50", "setting": "[1]; pH 9, 50° C.", "value": "1.5 h (pH 9, 50° C.)"}]}, {"compound": "CC1(C)[C@H](C(=O)O[C@H](C#N)c2cccc(Oc3ccccc3)c2)[C@@H]1C=C(Br)Br", "note": "[Deltamethrin, (S)-α-cyano-3-phenoxybenzyl (1R,3R)-3-(2,2-dibromovinyl)-2,2-dimethylcyclopropanecarboxylate]", "values": [{"measurement": "KOW logP", "setting": "[5]; 25° C.", "value": "logP = 4.6"}, {"measurement": "Photolytic stability", "setting": "[2]", "value": "Ester bond splitting and bromine loss under"}, {"measurement": "Stability data", "setting": "[1]", "value": "stable at pH 5 and 7"}, {"measurement": "DT50", "setting": "[1]; pH 8", "value": 31, "unit": "days"}, {"measurement": "DT50", "setting": "[1]; pH 9", "value": 2.5, "unit": "days"}]}, {"compound": "CC(C)[C@H](C(=O)O[C@H](C#N)c1cccc(Oc2ccccc2)c1)c1ccc(Cl)cc1", "note": "[Esfenvalerate, (S)-α-cyano-3-phenoxybenzyl (S)-2-(4-chlorophenyl)-3-methylbutyrate]", "values": [{"measurement": "Solubility in hexane", "setting": "[4]; 20° C.", "value": 77, "unit": "mg/mL"}, {"measurement": "Solubility in water", "setting": "[4]; 20° C.", "value": "water 0.002 mg/l (20° C.)"}, {"measurement": "Solubility in xylene, acetone, chloroform, ethanol, methanol, DMF, hexylene glycol", "setting": "[4]; 20° C.", "value": "> 450", "unit": "mg/mL"}, {"measurement": "KOW logP", "setting": "[5]; pH 7, 25° C.", "value": "logP = 6.5"}, {"measurement": "Photolytic stability", "setting": "[2]", "value": "Stable^+"}, {"measurement": "Stability data", "setting": "[1]", "value": "Stable to hydrolysis at pH 5, 7 and 9 (25° C.)."}]}, {"compound": "CC1(C)[C@H](C(=O)O[C@H](C#N)c2cccc(Oc3ccccc3)c2)[C@@H]1/C=C(\\Cl)C(F)(F)F", "note": "[Gamma-cyhalothrin, (S)-α-cyano-3-phenoxybenzyl (Z)-(1R,3R)-3-(2-chloro-3,3,3-trifluoroprop-1-enyl)-2,2-dimethylcyclopropanecarboxylate]", "values": [{"measurement": "Solubility in water", "setting": "[4]; 20° C.", "value": "water 2.1 × 10^−3 mg/l (20° C.)"}, {"measurement": "KOW logP", "setting": "[5]; 19° C.", "value": "logP = 4.96"}, {"measurement": "Photolysis DT50", "setting": "[2]", "value": "Photolysis DT50 (aqueous solution) 10.6 days^+"}]}, {"compound": "CC1(C)C(C=C(Cl)Cl)C1C(=O)OCc1cccc(Oc2ccccc2)c1", "note": "(stereo not drawn) [Permethrin, 3-phenoxybenzyl (1RS,3RS;1RS,3SR)-3-(2,2-dichlorovinyl)-2,2-dimethylcyclopropanecarboxylate]", "values": [{"measurement": "Solubility in methanol", "setting": "[4]; 25° C.", "value": "258 (all in g/kg, 25° C.)"}, {"measurement": "Solubility in xylene, hexane", "setting": "[4]; 25° C.", "value": "xylene, hexane >1000, methanol g/kg"}, {"measurement": "Solubility in water", "setting": "[4]; pH 7, 20° C.", "value": "water 6 × 10^−3mg/l (pH 7, 20° C.);"}, {"measurement": "Solubility in water", "setting": "[4]; trans- isomers, pH not stated, 25° C.", "value": "stated, 25° C.); trans- isomers 0.13 mg/l"}, {"measurement": "Photolytic stability", "setting": "[2]", "value": "Photolysis in water^++"}, {"measurement": "DT50", "setting": "[1]; pH 5, 7, 25° C.", "value": "stable"}, {"measurement": "DT50 (hydrolysis)", "setting": "[1]; pH 9, 25° C.", "value": 50, "unit": "days"}]}, {"compound": "CC(C)=CC1C(C(=O)OCc2coc(Cc3ccccc3)c2)C1(C)C", "note": "(stereo not drawn) [Resmethrin, 5-benzyl-3-furylmethyl (1RS,3RS;1RS,3SR)-2,2-dimethyl-3-(2-methylprop-1-enyl)cyclopropane carboxylate]", "values": [{"measurement": "Solubility in water", "setting": "[4]; 25° C.", "value": "water 37.9 μg/l (25° C.)"}, {"measurement": "Solubility in acetone", "setting": "[4]; m/v, 20° C.", "value": "acetone c. 30%, chloroform,"}, {"measurement": "Solubility in chloroform, dichloromethane, ethyl acetate, toluene", "setting": "[4]; m/v, 20° C.", "value": "> 50", "unit": "%"}, {"measurement": "Solubility in ethanol, n-octanol", "setting": "[4]; m/v, 20° C.", "value": "ethanol, n-octanol c. 6%, n-hexane"}, {"measurement": "Solubility in isopropyl ether", "setting": "[4]; m/v, 20° C.", "value": "~25", "unit": "%"}, {"measurement": "Solubility in methanol", "setting": "[4]; m/v, 20° C.", "value": "methanol c. 3% (all m/v, 20° C.)"}, {"measurement": "Solubility in n-hexane", "setting": "[4]; m/v, 20° C.", "value": "~10", "unit": "%"}, {"measurement": "Solubility in xylene", "setting": "[4]; m/v, 20° C.", "value": "> 40", "unit": "%"}, {"measurement": "KOW logP", "setting": "[5]; 25° C.", "value": "logP = 5.43"}, {"measurement": "Photolytic stability", "setting": "[2]", "value": "Decomposes rapidly on exposure to air and light^+"}, {"measurement": "Stability data", "setting": "[1]", "value": "Unstable in alkaline media"}]}, {"compound": "A mixture of the enantiomers (R)-α-cyano-3-phenoxybenzyl (1S,3R)-3-(2,2-dichlorovinyl)-2,2-dimethylcyclopropanecarboxylate and (S)-α-cyano-3-phenoxybenzyl (1R,3S)-3-(2,2-dichlorovinyl)-2,2-dimethylcyclopropanecarboxylate in the ratio 1:1 [Theta-cypermethrin]", "values": [{"measurement": "DT50 (extrapolated)", "setting": "[1]; pH 3, 5, 6, 25° C.", "value": 50, "unit": "days"}, {"measurement": "DT50 (extrapolated)", "setting": "[1]; pH 7, 25° C.", "value": 20, "unit": "days"}, {"measurement": "DT50 (extrapolated)", "setting": "[1]; pH 8, 25° C.", "value": 18, "unit": "days"}, {"measurement": "DT50 (extrapolated)", "setting": "[1]; pH 9, 25° C.", "value": 10, "unit": "days"}]}, {"compound": "Beta-cypermethrin", "values": [{"measurement": "KOW logP", "setting": "[5]", "value": "logP = 4.7"}, {"measurement": "Stability data", "setting": "[1]", "value": "Hydrolyzed in strongly alkaline media. DT50"}, {"measurement": "DT50 (extrapolated)", "setting": "[1]; pH 3, 5, 6, 25° C.", "value": 50, "unit": "days"}, {"measurement": "DT50 (extrapolated)", "setting": "[1]; pH 7, 25° C.", "value": 40, "unit": "days"}, {"measurement": "DT50 (extrapolated)", "setting": "[1]; pH 8, 25° C.", "value": 20, "unit": "days"}, {"measurement": "DT50 (extrapolated)", "setting": "[1]; pH 9, 25° C.", "value": "(pH 8), 15 d (pH 9) (all at 25° C.)"}]}]}
